Measured values: PubChem BioAssay AID248 (DTP/NCI, 2004)
Values joined by “and” are separate entries in the source; they are usually repeats but may differ in a detail not shown here. Equal entries are not always repeated. Inconclusive results and toxic doses are left out. Rule as the data show it: active = T/C of 150% or more; inactive = T/C below 125%.

Test system: L1210 leukemia ip in BDF1 mice, survival T/C
Test: NCI In Vivo Anticancer Drug Screen. Data for tumor model L1210 Leukemia (intraperitoneal) in B6D2F1 (BDF1) mice
Conditions: endpoint: mean survival time, higher = longer survival
Summary of the method: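 Ratio derived from survival: compound-dosed mice over vehicle-dosed mice, all bearing a transplantable tumor.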

[1] = dose: 100.0 mg/kg/injection, schedule: Q01DX009 (ip), vehicle: saline
[2] = dose: 100.0 mg/kg/injection, schedule: Q04DX003 (ip), vehicle: saline
[3] = dose: 200.0 mg/kg/injection, schedule: Q01DX009 (ip), vehicle: saline
[4] = dose: 200.0 mg/kg/injection, schedule: Q04DX003 (ip), vehicle: saline
[5] = dose: 400.0 mg/kg/injection, schedule: Q04DX003 (ip), vehicle: saline
[6] = dose: 12.5 mg/kg/injection, schedule: Q01DX009 (ip), vehicle: Klucel (hydroxypropylcellulose) (HPC)
[7] = dose: 25.0 mg/kg/injection, schedule: Q01DX009 (ip), vehicle: Klucel (hydroxypropylcellulose) (HPC)
[8] = dose: 50.0 mg/kg/injection, schedule: Q01DX009 (ip), vehicle: Klucel (hydroxypropylcellulose) (HPC)
[9] = dose: 100.0 mg/kg/injection, schedule: Q04DX003 (ip), vehicle: Klucel (hydroxypropylcellulose) (HPC)
[10] = dose: 100.0 mg/kg/injection, schedule: Q01DX009 (ip), vehicle: saline with Tween-80
[11] = dose: 100.0 mg/kg/injection, schedule: Q01DX001 (ip), vehicle: saline with Tween-80
[12] = dose: 400.0 mg/kg/injection, schedule: Q01DX001 (ip), vehicle: saline with Tween-80
[13] = dose: 100.0 mg/kg/injection, schedule: Q04DX002 (ip), vehicle: saline with Tween-80
[14] = dose: 200.0 mg/kg/injection, schedule: Q04DX002 (ip), vehicle: saline with Tween-80
[15] = dose: 100.0 mg/kg/injection, schedule: Q04DX003 (ip), vehicle: saline with Tween-80
[16] = dose: 200.0 mg/kg/injection, schedule: Q04DX003 (ip), vehicle: saline with Tween-80
[17] = dose: 400.0 mg/kg/injection, schedule: Q04DX003 (ip), vehicle: saline with Tween-80
[18] = dose: 100.0 mg/kg/injection, schedule: Q01DX001 (ip), vehicle: saline
[19] = dose: 200.0 mg/kg/injection, schedule: Q01DX001 (ip), vehicle: saline

Measured: T/C

Cc1noc2c1ncc[n+]2[O-]
inactive: dose: 5.0 mg/kg/injection, schedule: Q01DX009 (ip), vehicle: saline with Tween-80 89 % of control | dose: 10.0 mg/kg/injection, schedule: Q01DX009 (ip), vehicle: saline with Tween-80 91 % of control | dose: 20.0 mg/kg/injection, schedule: Q01DX009 (ip), vehicle: saline with Tween-80 86 % of control

COC(=O)C(C)(C)O
inactive: [1] 102 % of control | [2] 104 % of control | [3] 102 % of control | [4] 100 % of control | dose: 400.0 mg/kg/injection, schedule: Q01DX009 (ip), vehicle: saline 97 % of control | [5] 104 % of control

CC/C(=C\c1ccc(Cl)cc1)[N+](=O)[O-]
inactive: [6] 98 % of control | [7] 100 % of control | dose: 25.0 mg/kg/injection, schedule: Q04DX003 (ip), vehicle: Klucel (hydroxypropylcellulose) (HPC) 100 % of control | [8] 88 % of control | dose: 50.0 mg/kg/injection, schedule: Q04DX003 (ip), vehicle: Klucel (hydroxypropylcellulose) (HPC) 105 % of control | [9] 101 % of control and 111 % of control

CC(C)(C)c1ccc(O)cc1
inactive: [10] 89 % of control

O=C(O)CCc1nn(-c2ccccc2)c(=O)c2ccccc12
inactive: dose: 100.0 mg/kg/injection, schedule: Q04DX002 (ip), vehicle: Klucel (hydroxypropylcellulose) (HPC) 106 % of control | dose: 200.0 mg/kg/injection, schedule: Q04DX002 (ip), vehicle: Klucel (hydroxypropylcellulose) (HPC) 95 % of control

Oc1cc2ccc3c(c2cc1O)CCc1cn[nH]c1-3
inactive: [11] 92 % of control | [12] 92 % of control

CC(C)(C)OC(=O)NC(C(=O)O)C1=CCC=CC1 (stereo unspecified)
inactive: [9] 94 % of control | dose: 400.0 mg/kg/injection, schedule: Q04DX003 (ip), vehicle: Klucel (hydroxypropylcellulose) (HPC) 102 % of control

O=C1OCC/C1=C\c1cccc(/C=C2\CCOC2=O)c1
inactive: dose: 25.0 mg/kg/injection, schedule: Q04DX002 (ip), vehicle: saline with Tween-80 92 % of control | dose: 50.0 mg/kg/injection, schedule: Q04DX002 (ip), vehicle: saline with Tween-80 95 % of control | [13] 106 % of control | [14] 100 % of control

COC(=O)c1cc2c(cc1O)CCCC2
inactive: dose: 50.0 mg/kg/injection, schedule: Q01DX001 (ip), vehicle: carboxymethylcellulose (CMC) 107 % of control | dose: 100.0 mg/kg/injection, schedule: Q01DX001 (ip), vehicle: carboxymethylcellulose (CMC) 113 % of control | dose: 200.0 mg/kg/injection, schedule: Q01DX001 (ip), vehicle: carboxymethylcellulose (CMC) 107 % of control | dose: 400.0 mg/kg/injection, schedule: Q01DX001 (ip), vehicle: carboxymethylcellulose (CMC) 107 % of control

CC(=O)C(Cc1ccc(CC(C(C)=O)C(C)=O)cc1)C(C)=O
inactive: [15] 100 % of control | [16] 91 % of control | [17] 100 % of control

CCCCCCCCCCCCCCCCOc1ccc(S(=O)(=O)Nc2cc(C(=O)OC)cc(C(=O)OC)c2)cc1N
inactive: [15] 97 % of control | [16] 90 % of control | [17] 90 % of control

COc1ccccc1NC(=O)Nc1ccc(C)c(C)c1
inactive: dose: 100.0 mg/kg/injection, schedule: Q01DX009 (ip), vehicle: gum acacia 92 % of control | dose: 100.0 mg/kg/injection, schedule: Q04DX003 (ip), vehicle: gum acacia 96 % of control | dose: 200.0 mg/kg/injection, schedule: Q01DX009 (ip), vehicle: gum acacia 96 % of control | dose: 200.0 mg/kg/injection, schedule: Q04DX003 (ip), vehicle: gum acacia 98 % of control | dose: 400.0 mg/kg/injection, schedule: Q01DX009 (ip), vehicle: gum acacia 90 % of control | dose: 400.0 mg/kg/injection, schedule: Q04DX003 (ip), vehicle: gum acacia 90 % of control

CC(=O)Oc1ccccc1OC(=S)N(C)C
inactive: [15] 106 % of control | [16] 111 % of control | [17] 105 % of control

COc1ccc2c(c1OC(C)=O)-c1cc(O)cc3c1C(C2)N(C(=O)CN(CCO)CCO)CC3 (stereo unspecified)
inactive: dose: 25.0 mg/kg/injection, schedule: Q04DX003 (ip), vehicle: DMSO 104 % of control | dose: 50.0 mg/kg/injection, schedule: Q04DX003 (ip), vehicle: DMSO 93 % of control | dose: 100.0 mg/kg/injection, schedule: Q04DX003 (ip), vehicle: DMSO 89 % of control | dose: 200.0 mg/kg/injection, schedule: Q04DX003 (ip), vehicle: DMSO 104 % of control | dose: 400.0 mg/kg/injection, schedule: Q04DX003 (ip), vehicle: DMSO 97 % of control

N#Cc1ccc([N+](=O)[O-])cc1O
inactive: dose: 50.0 mg/kg/injection, schedule: Q04DX003 (ip), vehicle: saline 96 % of control | [18] 98 % of control | [2] 95 % of control | [19] 104 % of control | [4] 96 % of control

Cn1cc(NC(=O)c2cc(NC(=O)c3cc(NC=O)cn3C)cn2C)cc1C(=O)NCCC(=N)N
inactive: [6] 95 % of control | [7] 98 % of control | dose: 25.0 mg/kg/injection, schedule: Q01DX Z (ip), vehicle: water 100 % of control | [8] 92 % of control | dose: 50.0 mg/kg/injection, schedule: Q01DX Z (ip), vehicle: water 104 % of control | dose: 75.0 mg/kg/injection, schedule: Q01DX Z (ip), vehicle: water 104 % of control | dose: 100.0 mg/kg/injection, schedule: Q01DX Z (ip), vehicle: water 100 % of control

CC(=O)Oc1ccc(C)cc1
inactive: [8] 94 % of control | dose: 100.0 mg/kg/injection, schedule: Q01DX009 (ip), vehicle: Klucel (hydroxypropylcellulose) (HPC) 110 % of control | [9] 100 % of control | dose: 200.0 mg/kg/injection, schedule: Q01DX009 (ip), vehicle: Klucel (hydroxypropylcellulose) (HPC) 107 % of control | dose: 200.0 mg/kg/injection, schedule: Q04DX003 (ip), vehicle: Klucel (hydroxypropylcellulose) (HPC) 104 % of control

CCOC(O)(C(F)(F)F)C(F)(F)F
inactive: dose: 12.5 mg/kg/injection, schedule: Q01DX009 (ip), vehicle: saline with Tween-80 96 % of control | dose: 12.5 mg/kg/injection, schedule: Q04DX003 (ip), vehicle: saline with Tween-80 95 % of control | dose: 25.0 mg/kg/injection, schedule: Q01DX009 (ip), vehicle: saline with Tween-80 105 % of control | dose: 50.0 mg/kg/injection, schedule: Q04DX003 (ip), vehicle: saline with Tween-80 97 % of control | [18] 98 % of control

Nc1ccc2c(c1)sc1ccccc12
inactive: [15] 88 % of control | [16] 91 % of control

COC1c2cnc(C)n2C=CN1C(C)=O (stereo unspecified)
inactive: dose: 25.0 mg/kg/injection, schedule: Q01DX009 (ip), vehicle: saline 102 % of control | dose: 50.0 mg/kg/injection, schedule: Q01DX009 (ip), vehicle: saline 100 % of control | [1] 91 % of control | [2] 108 % of control | [4] 98 % of control

CC(=O)OC1=C(C)C2=C3OC(=O)C(C)=C3CC[C@@]2(C)CC1
inactive: [18] 97 % of control | [19] 101 % of control | dose: 400.0 mg/kg/injection, schedule: Q01DX001 (ip), vehicle: saline 95 % of control

CC(C)OP(=S)(S)OC(C)C
inactive: [2] 112 % of control | [4] 96 % of control | [5] 102 % of control

S=C1NC2(CCCCC2)C2=C(CCCC2)S1
inactive: [15] 100 % of control | [16] 88 % of control | [17] 96 % of control

O=C1c2cccc3c2C2(O)c4c1cccc4C(=O)c1cccc(c12)C3=O
inactive: [10] 101 % of control | [15] 96 % of control | dose: 132.0 mg/kg/injection, schedule: Q01DX009 (ip), vehicle: saline 101 % of control | [3] 101 % of control | [16] 100 % of control | dose: 300.0 mg/kg/injection, schedule: Q01DX009 (ip), vehicle: saline 95 % of control | [17] 102 % of control

O=C(O)c1ccc[nH]1
inactive: [13] 102 % of control | [14] 87 % of control | dose: 400.0 mg/kg/injection, schedule: Q04DX002 (ip), vehicle: saline with Tween-80 98 % of control

Cc1ccc(S(=O)(=O)OCC(C)C2CCC3C4CC=C5CC(Cl)CCC5(C)C4CCC23C)cc1 (stereo unspecified)
inactive: [11] 91 % of control | dose: 200.0 mg/kg/injection, schedule: Q01DX001 (ip), vehicle: saline with Tween-80 102 % of control | [12] 94 % of control
